What was measured:
[1] = molecular target: T1, Clostridium thermosulfurogenes DNA polymerase, N-terminal His6 tag (Cth-His), SEQ ID NO:15 (Thermoanaerobacterium thermosulfurigenes, UniProt Q6X9R5); test: Steady-state kinetics, DNA- and RNA-dependent polymerase activity
T1 sequence (Q6X9R5 with tags, fused parts or gaps): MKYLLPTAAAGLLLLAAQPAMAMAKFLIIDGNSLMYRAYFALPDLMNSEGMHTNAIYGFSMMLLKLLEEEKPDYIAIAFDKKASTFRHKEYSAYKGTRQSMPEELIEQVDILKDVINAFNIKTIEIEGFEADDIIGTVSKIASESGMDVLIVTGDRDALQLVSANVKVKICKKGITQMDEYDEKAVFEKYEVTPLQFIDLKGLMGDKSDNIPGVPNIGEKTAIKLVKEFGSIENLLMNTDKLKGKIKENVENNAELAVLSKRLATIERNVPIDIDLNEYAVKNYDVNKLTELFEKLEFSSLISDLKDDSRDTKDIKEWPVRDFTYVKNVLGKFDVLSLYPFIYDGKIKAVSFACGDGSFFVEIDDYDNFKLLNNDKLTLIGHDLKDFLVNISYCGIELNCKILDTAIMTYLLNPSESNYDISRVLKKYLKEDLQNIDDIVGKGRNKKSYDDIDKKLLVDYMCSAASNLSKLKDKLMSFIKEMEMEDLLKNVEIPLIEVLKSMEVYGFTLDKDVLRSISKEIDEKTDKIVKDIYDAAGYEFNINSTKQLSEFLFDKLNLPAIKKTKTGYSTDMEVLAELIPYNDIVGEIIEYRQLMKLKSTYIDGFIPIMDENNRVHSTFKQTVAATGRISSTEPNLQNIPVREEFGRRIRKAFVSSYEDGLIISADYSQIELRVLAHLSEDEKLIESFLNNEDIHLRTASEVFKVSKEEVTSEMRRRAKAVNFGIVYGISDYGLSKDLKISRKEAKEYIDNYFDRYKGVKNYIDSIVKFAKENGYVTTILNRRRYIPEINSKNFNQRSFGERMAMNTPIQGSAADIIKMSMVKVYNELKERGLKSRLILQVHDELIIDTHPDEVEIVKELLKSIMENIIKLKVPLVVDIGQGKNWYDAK
Description: (§1) Subcloning of genes for Cst and Cth DNA polymerases. In order to improve expression and simplify purification of Cst and Cth DNA polymerase, the genes were subcloned downstream of a T7 promoter and an amino-terminal His6 tag sequence was introduced using Gateway cloning technology (Invitrogen Corporation, Carlsbad, Calif.). The sequence of the DNA oligonucleotide used at the 5′ end of the Cst gene was: 5′-[…] ATAGAC 3′ (SEQ ID NO:37). The sequence of the DNA oligonucleotide used at the 5′ end of the Cth gene was: 5′-[…] […]-3′ (SEQ ID NO:38). The sequence of the DNA oligonucleotide used at the 3′ end of each gene was the same: 5′-[…] […] 3′ (SEQ ID NO:39). Purified pET26B plasmid DNA (Novagen Inc., Madison, Wis.) bearing the gene for Cst or Cth DNA polymerase was amplified by PCR utilizing the primers listed above and Platinum Taq HiFi DNA polymerase (Invitrogen Corporation, Carlsbad, Calif.). PCR products purified by agarose gel electrophoresis were cloned into Gateway vector pDON21 and transferred by recombination into vector pDEST17. […] Each final recombinant plasmid was transformed into the E. coli expression host BL21-AI (Invitrogen Corporation, Carlsbad, Calif.).
(§2) Purification of Cst-His and Cth-His DNA polymerases. E. coli cells (BL21AI) bearing the plasmid pDEST17 with the gene for Cst-His or Cth-His DNA polymerase were grown in 2.8-1 Fembach flasks in LB broth containing 50 μg/ml ampicillin at 37° C. After the culture reached an A590 of 1.0, expression of DNA polymerase was induced by the addition of 0.2% arabinose for 3 hr. Cells were harvested by centrifugation and stored at −70° C.
(§3) Steady-state kinetic measurements.
(§4) The assays were conducted in the presence of 1.5 mM MgCl2 at 55° C. for all enzymes except the Caldibacillus cellulovorans CompA.2 enzyme where 2 mM MgCl2 and 45° C. were used.

[2] = molecular target: T2, Clostridium stercorarium DNA polymerase, N-terminal His6 tag (Cst-His), SEQ ID NO:14 (Thermoclostridium stercorarium, UniProt L7VMI6); test: as above
T2 sequence (L7VMI6 with tags, fused parts or gaps): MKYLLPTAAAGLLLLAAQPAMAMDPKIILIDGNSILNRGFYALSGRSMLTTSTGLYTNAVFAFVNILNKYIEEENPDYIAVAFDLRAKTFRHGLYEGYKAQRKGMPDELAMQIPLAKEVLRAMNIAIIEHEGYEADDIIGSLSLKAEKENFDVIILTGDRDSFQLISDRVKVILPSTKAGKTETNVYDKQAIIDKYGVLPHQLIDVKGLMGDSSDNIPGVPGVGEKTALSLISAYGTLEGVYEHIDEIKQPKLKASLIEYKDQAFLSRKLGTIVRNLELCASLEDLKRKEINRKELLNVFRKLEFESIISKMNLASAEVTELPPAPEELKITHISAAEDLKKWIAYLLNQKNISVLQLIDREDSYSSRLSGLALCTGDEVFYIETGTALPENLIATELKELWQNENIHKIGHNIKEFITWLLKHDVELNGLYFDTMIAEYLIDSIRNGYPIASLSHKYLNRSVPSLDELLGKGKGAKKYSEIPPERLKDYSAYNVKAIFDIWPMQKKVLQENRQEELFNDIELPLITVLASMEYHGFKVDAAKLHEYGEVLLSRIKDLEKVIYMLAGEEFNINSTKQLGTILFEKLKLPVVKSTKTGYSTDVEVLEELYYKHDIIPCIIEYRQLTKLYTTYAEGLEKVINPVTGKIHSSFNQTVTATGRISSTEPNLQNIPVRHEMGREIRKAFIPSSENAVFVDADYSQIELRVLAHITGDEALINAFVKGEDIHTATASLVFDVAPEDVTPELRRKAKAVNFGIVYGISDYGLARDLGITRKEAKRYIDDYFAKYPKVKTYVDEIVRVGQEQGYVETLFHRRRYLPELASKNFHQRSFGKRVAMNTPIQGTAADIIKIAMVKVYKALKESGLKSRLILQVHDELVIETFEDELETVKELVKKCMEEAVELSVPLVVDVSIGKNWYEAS
Description: as §1, §2, §3, §4

[3] = Table 34, RNA template, 2 mM MgCl2, 45 °C per footnote
[4] = read-out: Km RNA (dTTP), Table 34, RNA template, 2 mM MgCl2, 45 °C per footnote

Compound: Cc1cn([C@H]2C[C@H](O)[C@@H](COP(=O)(O)OP(=O)(O)OP(=O)(O)O)O2)c(=O)[nH]c1=O [dTTP]
- Kcat RNA (dTTP) [1, 3]: 0.94 s⁻¹
- kCAT Ratio (RNA/DNA) ([1]; Table 40, dTTP, 55 °C): 0.57
- Km [1, 4]: 68 µM
- Kcat RNA (dTTP) [2, 3]: 19.2 s⁻¹
- kCAT Ratio (RNA/DNA) ([2]; Table 40, dTTP, 55 °C): 2.2
- Km [2, 4]: 76 µM
